pIC50: −log10 of the molar value.
Test: Inhibitory activity against rice Alpha-galactosidase

OCC1=NO[C@H]2[C@H](O)C(O)O[C@@H]12 (stereo partly drawn) [(3aS,6S,6aS)-3-Hydroxymethyl-3a,5,6,6a-tetrahydro-furo[2,3-d]isoxazole-5,6-diol]
pIC50: 3.09
